From patent publication EP1534672B1, “RETINOL DERIVATIVES, THEIR USE IN THE TREATMENT OF CANCER AND FOR POTENTIATING THE EFFICACY OF OTHER CYTOTOXIC AGENTS” (priority 2002, dated 2004)
Several values for one entry are separate records, joined by “and”; a condition that tells them apart may be missing. Equal entries are not always repeated. Where two headings read alike, the source gives them in different places. Marks after values point to notes of the source that are not given here.

Columns and labels:
[1] = single dose i.p. toxicity study in rats
Method: (§1) A single dose i.p. toxicity study in rats was carried out. […] The minimal lethal dose is thus above 100 mg/kg body weight for these compounds.

[2] = tested on: Human Breast Adenocarcinoma Cell Line MDA-MB-231; test: Drug cytotoxicity testing (viable cell count, trypan blue exclusion, cell growth inhibition); assay type: cell-based
In short: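 A549 cells (10 × 10^3/well) and MDA-MB-231 cells (12 × 10^3/well) were left to adhere for 24 h, then exposed to drugs in medium with 5% FBS for 2 days. Viable cells were counted by trypan blue exclusion after trypsinization. Growth inhibition (%) = (control − test)/control × 100, from three determinations in six replicates each.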

[3] = tested on: Human Ovary Adenocarcinoma Cell Line SKOV-3; test: as above; assay type: cell-based; details: alone or in formulation at molar ratio 1:6
Method: MDA-MB-231 cells were propagated in MEM culture medium with 2 mM L-glutamine, 10% heat-inactivated fetal bovine serum (FBS) and antibiotics. DU 145 cells were cultured in MEM culture medium containing 2 mM L-glutamine, 1 mM sodium pyruvate, 10% FBS and antibiotics. SKOV-3 cells were cultured in McCoy's 5A culture medium, supplemented with 1,5 mM L-glutamine, 10% FBS and antibiotics. A549 cells were cultured in Ham's F-12 culture medium with 1 mM L-glutamine, 10% FBS and antibiotics. All media and supplements were purchased from Sigma-Aldrich (St.Louis, MO, USA). Cell propagation of all lines was carried out in Falcon™ 25 cm^2 cultivation flasks (Becton Dickinson Labware).
Drug cytotoxicity testing was carried out with using Falcon™ 96-well cultivation plates for adherent cells (Becton Dickinson Labware). These plates were seeded by cells either at 12 × 10^3 MDA-MB-231 cells/well, or at 12 × 10^3 DU 145 cells/well, or at 14 × 10^3 SKOV-3 cells/well, or at 10 × 10^3 A549 cells/well in a volume of 200 µL/well.
The cell cultures in cultivation plates were allowed to adhere for 24 hour of incubation. On day 1 after cell seeding, 2 µL solutions of the drugs to be tested in medium with 5% FBS was added to the cultures. In the control cultures, 2 µL of medium with 5% FBS was added as solvent control. The cells were incubated for 2 consecutive days. At the end of the incubation period adherent cells were detached by trypsinization and the number of viable cells was counted using trypan blue exclusion test and a hemocytometer. All data were derived from an average of three determinations each in six replicates. The results were expressed as mean cell number ± SE and the differences between control and test series evaluated by means of Student's t-test. The drug cytotoxicity was evaluated based on the extent of cell growth inhibition. The cell growth inhibition of the tested drugs was calculated as follows: Cell growth inhibition,% = (Control-TestSeries)/(Control) × 100 [formula]

[4] = tested on: Human Lung Carcinoma Cell Line A549; test: as above; assay type: cell-based
[5] = rat, in vivo, ip
Method: as §1

[6] = cytotoxic drug alone 10^-8 mol/L, average of positive controls in medium with 5% FBS, normal saline and saline with 2,3 mM CaCl2
[7] = cytotoxic drug alone 10^-9 mol/L, average of positive controls in medium with 5% FBS, normal saline and saline with 2,3 mM CaCl2
[8] = compound alone 10^-7 mol/L, in B (normal saline)
[9] = compound alone 10^-8 mol/L, in B (normal saline)
[10] = compound alone 10^-9 mol/L, in B (normal saline)
[11] = sodium salt, range 10^-9 to 10^-7 M

CC1=C(/C=C/C(C)=C/C=C/C(C)=C/C(=O)N[C@@H](CS(=O)O)C(=O)O)C(C)(C)CCC1 (stereo in doubt) [I-2, N-(all-trans-Retinoyl)-L-cysteinesulfinic acid]
minimal lethal dose [1]: above 100 mg/kg body weight

CC(=O)O[C@H]1C(=O)[C@@]2(C)[C@H]([C@H](OC(=O)c3ccccc3)[C@]3(O)C[C@H](OC(=O)[C@H](O)[C@@H](NC(=O)c4ccccc4)c4ccccc4)C(C)=C1C3(C)C)[C@]1(OC(C)=O)CO[C@@H]1C[C@@H]2O [Paclitaxel, paclitaxel, reference compound]
inhibition at 0.01 µM ([2]; Homo sapiens, MDA-MB-231, cytotoxic drug alone 10^-8 mol/L, average of positive controls in medium with 5% FBS, normal saline and saline with 2,3 mM CaCl2, read-out: Cell Growth Inhibition, %): 43.3%
inhibition at 0.001 µM ([2]; Homo sapiens, MDA-MB-231, cytotoxic drug alone 10^-9 mol/L, average of positive controls in medium with 5% FBS, normal saline and saline with 2,3 mM CaCl2, read-out: Cell Growth Inhibition, %): 27.3%
IC50 ([2]; Homo sapiens, MDA-MB-231, cytotoxic drug alone, average of positive controls, calculated from three concentrations, read-out: IC50 mol/L (a)): 17 nM
Tumor Cell Number, × 10^3 ([2]; cytotoxic drug alone 10^-7 mol/L, average of positive controls in medium with 5% FBS, normal saline and saline with 2,3 mM CaCl2): 16.0±0.72 × 10^3 and 16.6±0.86 × 10^3
Cell Growth Inhibition, % [2, 6]: 43.9* %
Tumor Cell Number, × 10^3 [2, 6]: 32.2±1.60 × 10^3 and 32.8±1.07 × 10^3
Cell Growth Inhibition, % [2, 7]: 27.7* %
Tumor Cell Number, × 10^3 [2, 7]: 41.3±1.93 × 10^3 and 42.3±1.55 × 10^3
inhibition at 0.1 µM ([3]; Homo sapiens, SK-OV-3, cytotoxic drug 10^-7 mol/L (100 nM), working solutions in medium with 5% FBS): 71.1%
inhibition at 0.01 µM ([3]; Homo sapiens, SK-OV-3, cytotoxic drug 10^-8 mol/L, working solutions in medium with 5% FBS): 59.9%
inhibition at 0.001 µM ([3]; Homo sapiens, SK-OV-3, cytotoxic drug 10^-9 mol/L, working solutions in medium with 5% FBS): 24.8%
IC50 ([3]; Homo sapiens, SK-OV-3, as concentration of cytotoxic drug, medium with 5% FBS, calculated from three concentrations, read-out: IC50 mol/L (a)): 4.5 nM
Tumor Cell Number, × 10^3 ([3]; cytotoxic drug 10^-7 mol/L (100 nM), working solutions in medium with 5% FBS): 14.1 ± 0.98 × 10^3
Tumor Cell Number, × 10^3 ([3]; cytotoxic drug 10^-7 mol/L (100 nM), working solutions in medium with 5% FBS, listed as paclitaxel): 14.6 ± 0.82 × 10^3
Tumor Cell Number, × 10^3 ([3]; cytotoxic drug 10^-8 mol/L, working solutions in medium with 5% FBS): 19.9 ± 1.45 × 10^3
Tumor Cell Number, × 10^3 ([3]; cytotoxic drug 10^-9 mol/L, working solutions in medium with 5% FBS): 37.3 ± 1.80 × 10^3

COC(=O)[C@H](CS(=O)(=O)O)NC(=O)\C=C(C)/C=C/C=C(C)/C=C/C1=C(C)CCCC1(C)C [compound II-1a, N-(13-cis-retinoyl)-L-cysteic acid methyl ester]
inhibition at 0.1 µM ([4]; Homo sapiens, A549, compound alone 10^-7 mol/L, in A (saline with […] CaCl2)): 34.4%
inhibition at 0.1 µM ([4]; Homo sapiens, A549, compound alone 10^-7 mol/L, in B (normal saline)): 25.6%
increase in cell growth inhibition in A over B at 0.1 µM ([4]; Homo sapiens, A549, compound alone 10^-7 mol/L, read-out: Cell growth inhibition in A compared to that in B was increased by): 11.8%
inhibition at 0.01 µM ([4]; Homo sapiens, A549, compound alone 10^-8 mol/L, in A (saline with […] CaCl2)): 26.9%
inhibition at 0.01 µM ([4]; Homo sapiens, A549, compound alone 10^-8 mol/L, in B (normal saline)): 15.6%
increase in cell growth inhibition in A over B at 0.01 µM ([4]; Homo sapiens, A549, compound alone 10^-8 mol/L, read-out: Cell growth inhibition in A compared to that in B was increased by): 13.4%
inhibition at 0.001 µM ([4]; Homo sapiens, A549, compound alone 10^-9 mol/L, in A (saline with […] CaCl2)): 20.4%
inhibition at 0.001 µM ([4]; Homo sapiens, A549, compound alone 10^-9 mol/L, in B (normal saline)): 7.2%
increase in cell growth inhibition in A over B at 0.001 µM ([4]; Homo sapiens, A549, compound alone 10^-9 mol/L, read-out: Cell growth inhibition in A compared to that in B was increased by): 14.3%
number of viable cells [4, 8]: 41.5 ± 1.80 × 10^3
number of viable cells [4, 9]: 47.1 ± 1.43 × 10^3
number of viable cells [4, 10]: 51.8 ± 2.48 × 10^3
cell growth inhibition in (A) compared to compound in B [4, 11]: ~12%
cell growth inhibition reached on increase of the concentration, in (B) ([4]; sodium salt, range 10^-9 to 10^-7 M, dilution in normal saline (B)): ~26%
inhibition at 0.1 µM ([2]; Homo sapiens, MDA-MB-231, 48 h, compound alone, final concentration 10^-7 mol/L, working solutions in MEM with 5% FBS, two days, read-out: cell growth inhibition): 46.5%
inhibition at 0.01 µM ([2]; Homo sapiens, MDA-MB-231, 48 h, compound alone, final concentration 10^-8 mol/L, working solutions in MEM with 5% FBS, two days, read-out: cell growth inhibition): 44.1%
inhibition at 0.001 µM ([2]; Homo sapiens, MDA-MB-231, 48 h, compound alone, final concentration 10^-9 mol/L, working solutions in MEM with 5% FBS, two days, read-out: cell growth inhibition): 38.8%
inhibition at 0.1 µM ([2]; Homo sapiens, MDA-MB-231, compound alone 10^-7 mol/L, in A (saline with […] CaCl2), read-out: cell growth inhibition): 48.9%
inhibition at 0.1 µM ([2]; Homo sapiens, MDA-MB-231, compound alone 10^-7 mol/L, in B (normal saline), read-out: cell growth inhibition): 40.5%
inhibition at 0.1 µM ([2]; Homo sapiens, MDA-MB-231, compound alone 10^-7 mol/L, read-out: Cell growth inhibition in A compared to that in B was increased by): 14.1%
inhibition at 0.01 µM ([2]; Homo sapiens, MDA-MB-231, compound alone 10^-8 mol/L, in A (saline with […] CaCl2), read-out: cell growth inhibition): 41.7%
inhibition at 0.01 µM ([2]; Homo sapiens, MDA-MB-231, compound alone 10^-8 mol/L, in B (normal saline), read-out: cell growth inhibition): 31.2%
inhibition at 0.01 µM ([2]; Homo sapiens, MDA-MB-231, compound alone 10^-8 mol/L, read-out: Cell growth inhibition in A compared to that in B was increased by): 15.2%
inhibition at 0.001 µM ([2]; Homo sapiens, MDA-MB-231, compound alone 10^-9 mol/L, in A (saline with […] CaCl2), read-out: cell growth inhibition): 35.8%
inhibition at 0.001 µM ([2]; Homo sapiens, MDA-MB-231, compound alone 10^-9 mol/L, in B (normal saline), read-out: cell growth inhibition): 23%
inhibition at 0.001 µM ([2]; Homo sapiens, MDA-MB-231, compound alone 10^-9 mol/L, read-out: Cell growth inhibition in A compared to that in B was increased by): 16.6%
number of viable cells [2, 8]: 34.1 ± 1.97 × 10^3
number of viable cells [2, 9]: 39.4 ± 2.28 × 10^3
number of viable cells [2, 10]: 44.1 ± 2.24 × 10^3
number of viable cells ([2]; compound alone, final concentration 10^-7 mol/L, working solutions in MEM with 5% FBS, two days): 31.3 ± 2.15 × 10^3
number of viable cells ([2]; compound alone, final concentration 10^-8 mol/L, working solutions in MEM with 5% FBS, two days): 32.7 ± 2.06 × 10^3
number of viable cells ([2]; compound alone, final concentration 10^-9 mol/L, working solutions in MEM with 5% FBS, two days): 35.8 ± 2.50 × 10^3
cell growth inhibition in (A) compared to compound in B [2, 11]: ~14%
minimal lethal dose [5]: above 100 mg/kg body weight
mortality ([5]; 100 mg/kg): did not produce mortality
